Experimental data as given in patent US9545392B2, “Carrier comprising a vitamin E derivative” (UCL BUSINESS PLC, priority 2007, dated 2017).

Assays:
[1] = format: in vivo; details: rat, tail vein; 300 μl of 5% free or 1 ml of 0.2% encapsulated
Procedure: 300 μl of 5% fluorescein sodium or 1 ml of 0.2% encapsulated fluorescein sodium, were administered to the rat through the tail vain and the retina monitored. Free fluorescein was removed by use of ultracentrifugation and PD-10 columns as outlined earlier.
It is important to highlight that the retinal blood vessels were not seen with the encapsulated material (A-C) as they are without (D-F), although there is a hint of arterial wall fluorescence in the encapsulated treated eye at 34 minutes (B). […] They were absent from the non-encapsulated eyes. These focal patches of fluorescence are believed to be intact liposomes containing fluorescein. […] The appearance, of fluorescent patches or “monofocal leakages” of sodium flourescein is similar to that that has been described when BBB disruption occurs in the brain (see FIG. 20 from Natah, S. S. et al. J Appl Physiol 107: 1348-1356 2009).

[2] = format: in vivo; details: rat, tail vein, 2 hours; 300 μl of 5% free or 1 ml of 0.2% encapsulated
Procedure: 300 μl of 5% fluorescein sodium or 1 ml of 0.2% encapsulated fluorescein sodium, were administered to the rat through the tail vain and the retina monitored. Free fluorescein was removed by use of ultracentrifugation and PD-10; columns as outlined earlier. After 2 hours; under general anaesthesia, the animals underwent fixation perfusion with 4% paraformaldehyde. Brains were stored in 4% paraformaldehyde overnight, following which 800 um slices were cut and examined under fluorescent confocal microscopy.
The images in FIG. 24 come from similar regions in the brain from an animal with intravenous encapsulated fluorescein sodium (A-B) compared to one with plain intravenous fluorescein sodium (C-D). Both fluorescence (A, C) and transmission (B, D) images are shown. […] This confirms the fact that encapsulation allows the fluorescein sodium to cross the BBB.
The appearance of fluorescent patches or “monofocal leakages” of sodium flourescein is similar to that that has been described when BBB disruption occurs in the brain, as discussed earlier (Natah, S. S. et al. J Appl Physiol 107: 1348-1356 2009).

[3] = format: in vivo; details: intravitreal injection, eyes imaged after 3 hours
Procedure: To access the release of encapsulated material, liposomes containing encapsulated αBT and annexin V-776 were administered via Intravitreal injection and the eyes were imaged after 3 hours.

[4] = In vivo labelling of retinal vasculature by alpha-bungarotoxin
Source text: The invention also provides alpha-bungarotoxin (αBT) for use in labelling the retinal vasculature of a subject. This is in vivo labelling. αBT is know to bind to nicotinic acetylcholine receptors (nAChRs) and is readily used to label the end plate of neuromuscular junctions ex vivo. It has not been applied to labelling in vivo due to it's potential neuromuscular inhibitory effects when used systemically. However, such problems are not seen when using it directly in the eye. The wall of the retinal vasculature, and in particular the arteries, is a muscular environment housing nAChRs. Therefore, αBT labels them specifically. This patterned labelling in the eye is something that is otherwise very difficult to achieve. Preferably, the αBT is administered directly to the retinal vasculature of the eye, for example, by intravitreal injection. Preferably, the αBT is labelled with an imaging moiety such as fluorescein.

Compound: O=C1OC2(c3ccc(O)cc3Oc3cc(O)ccc32)c2ccccc21 [Fluorescein, fluorescein sodium]
- crossing of the blood retinal barrier [1]: unable to cross an intact blood retinal barrier and remains isolated to the vessels
- fluorescence in brain slices [2]: no signal at all

Compound: Annexin V-776: labelled annexin V, anionic phospholipid binding protein, given with liposomes
- release of cargo from liposomes [3]: successful release

Compound: alpha-bungarotoxin [αBT]
- labelling of retinal vessels [4]: specifically labels the arteries in the retina
